Like-named read-outs stand apart in the source and are kept apart here.
Experiments:
HCT-116 = test: Calcein AM viability assay, HCT-116; assay type: cell-based, human; details: 72-hours incubation
Protocol: (§1) The potency of Cdk inhibitors, as measured by loss of cellular viability, was determined with the Calcein AM assay (Molecular Probes). Calcein AM is a substrate of intracellular esterases, which is cleaved only in viable cells to generate a fluorescent product that can be quantified with a fluorescent plate reader. The fluorescent signal is proportional to the number of viable cells, and thus loss of signal in response to the exposure of cells to Cdk inhibitors correlates with a loss of viability. This assay distinguishes cell cycle arrest from loss of viability and is thus well suited for the evaluation of Cdk inhibitors.
(§2) Cellular IC50's were determined in the human colorectal carcinoma cell line, HCT-116, and the normal human fibroblast, IMR90. Protein adjusted IC50's were also determined in HCT-116. Results are presented in Table 3 below (HCT-116 (viability/protein adjusted) and IMR-90).
(§3) HCT-116 or IMR90 cells were recovered from sub-confluent plates by trypsinization and 1,000 or 4,000 cells, respectively, were plated in 24-well dishes and incubated overnight at 37° C., 5% CO2. HCT-116 cells were cultured in RPMI-1640, 10% FCS, and IMR90 cells were cultured in Minimum Essential Medium-alpha, 10% FCS. After overnight incubation to allow.adlierence, the media was aspirated from each well and replaced with media containing a test compound at a concentration from 0 to 250 nM, spanning a total of 7 doses. The plates were returned to the incubator and cultured for an additional 3 days. […] After 72-hours incubation with the test compound, the cells were washed twice with 1×PBS, talking special care to remove all residual buffer.
(§4) A 5 μM Calcein AM. solution was prepared by dissolving a 50 μg aliquot of Calcein (Molecular Probes catalog # C3100) in 50 μl DMSO. After the Calcein had completely dissolved (10 minutes at room temperature), it was diluted into 10 ml PBS. Calcein/PBS (0.5 ml) was added to each well. The plates were incubated for 75 minutes at 37° C. (protected from light) and the fluorescent signal was read on a fluorescent plate reader (excitation 485/20 and emission 530/25).

HCT-116 cells [1] = test: Clonogenic survival assay with HCT-116 cells; assay type: cell-based; details: Homo sapiens
Protocol: This assay was used to determine the concentration of a compound that results irreversible loss of viability after a specified period of exposure.
Media (RPMI-1640, 10% FCS, pen/strep) was pre-warnied to 37° C. in a water bath. Cells were incubated and grown at 37° C., 5% CO2. Cells were recovered by trypsinization from sub-confluent plates and counted using a hemocytometer. 1×10^4 cells were plated in 25 mls of media in a 15 cm tissue culture dish. 14 plates were set up for each test compound, and were incubated overnight at 37° C. The compound was diluted into media at 7 concentrations and the media on the cells was replaced with that containing the test compound. Two plates were set up for each concentration of the compound to be tested, as well as two control plates without compound. […] Colonies were stained with crystal violet solution (0.4% crystal violet, 20 % ethanol) for 5 minutes, washed twice with distilled water, and counted.

HCT-116 cells [2] = test: BrdU incorporation into DNA (flow cytometry); assay type: cell-based, human; design: unit not given here; details: inhibition of BrdU incorporation, unit not given; for BrdU 72: analysis at 72 hours; for BrdU 24: analysis at 24 hours; for BrdU 48: analysis at 48 hours
Protocol: This method measured the percentage of cells that incorporated the nucleotide analog, BrdU, into newly synthesized DNA as cells progressed through the S phase of the cell cycle. The inhibition of BrdU incorporation was used as a measure of a Cdlc inhibitor's effect on S phase progression and DNA replication.
3 sets of HCT-116 cells (100,000 cells/set) were plated in T25 flasks and incubated with a test compound as above. Analysis was done at 24, 48, and 72 hours. BrdU was added to each T-25 flask from a stock of 10 mg/ml to a final concentration of 10 μM and the cells were incubated for an additional 16-18 hours at 37° C. The cells were then prepared for flow cytometric analysis according to manufacturer's protocol (BrdU Flow kit, BD-Pharmingen catalogue # 2354KK) as follows:
Cells were harvested (adherent and floating) from the T25 flasks directly into Falcon 12×75 flow cytometric tubes as above followed by fixation and permeabilization with the addition of 100 μl Cytofix/Cytoperm buffer (30 minutes, room temperature). The cells were then washed with 1 ml of Perm Wash buffer and the cell pellets were resuspended in 100 μl Cytoperm Plus buffer and incubated on ice for 10 minutes. The cells were then washed again with 1 ml of Perm Wash buffer and the fixation was repeated in 100 μl of Cytofix/Cyto Perm buffer for 10 minutes at room temperature. The cells were then washed with 1 ml of Perm Wash buffer. The cells were next treated for one hour at 37° C. with 100 μl DNase to expose incorporated BrdU followed by another wash step with 1 ml of Perm Wash buffer. […] Cells were protected from light and incubated at room temperature for 20-30 minutes. Following the incubation, the cells were washed with 1 ml of Perrn Wash buffer, resuspended in 300 μl of 2% FBS in PBS, and analyzed on the flow cytometer.

ADR-res = test: NCI panel (SRB assay), ADR-res cell line; assay type: cell-based, human; details: 48 hours incubation with compound, unit not given
Excerpt: (§5) The evaluation of compounds at the National Cancer Institute in their panel of 60 cell lines provides a wealth of information regarding efficacy in a wide range of tumor types and genetic backgrounds. Included within this panel are cell lines derived from leukemia, melanoma and cancers of the lung, colon, brain, ovary, breast, prostate and kidney. Use of this panel provides a measure of the efficacy of compounds in cells with alterations in many genes that are associated with neoplastic transformation including p53 and Her2/Neu as well as those involved in metabolism and those which confer multi-drug resistance. The data generated in these cell lines with the protocol described below can be used to evaluate the activity of compounds.
(§6) Cells were grown in RPMI-1640 10% FCS and plated in 96 well micro-titer plates at densities ranging from 5,000 to 40,000 cells/well. The plates were incubated for 24 hours at 37° C., 5% CO2 for 24 hours. Media containing twice the desired final concentration of the compound (5 doses spanning 4 logs) was prepared and 100 μl was added to each well containing 100 μl media plus cells to yield the desired final concentration. The plates were then incubated for an additional 48 hours.
(§7) The effect of the compound on cellular viability was determined with the Sulforhodamine B (SRB) assay which measures total protein. Cells were fixed with cold TCA to a fmal concentration of 10% and incubated at 4° C. for 60 minutes. The supernatant was discarded and the plates were washed five times with water and air-dried. SRB solution at […] in 1% acetic acid was added to each well and the plates were incubated for 10 minutes at room temperature. The plates were washed five times with 1% acetic acid and air-dried. The bound stain was solubilized with 10 mM trizma base and the absorbance was read on a plate reader at […].

IMR90 = test: Calcein AM viability assay, IMR90; assay type: cell-based; details: IMR-90, normal human fibroblast, 72-hours incubation
Protocol: as §1, §2, §3, §4

[3] = system: NCI panel of 60 cell lines; test: NCI panel of human tumor cell lines (SRB assay), MG-MID; assay type: cell-based; details: 48 hours incubation with compound
Excerpt: as §5, §6, §7

arrested HCT-116 cells = test: Arrested cell assay (serum starvation), HCT-116; assay type: cell-based, human; design: unit not given here; details: serum-starved arrested cells; unit not given
Protocol: (§8) Cyclin-dependent kinase (Cdk) activity is required to promote the progression of cells through distinct phases of the cell division cycle. The proliferation of normal, non-transformed, cells in culture requires the presence of growth factors, the removal of which, through serum deprivation, leads to a loss of Cdlc activity and consequent exit from the cell cycle as cells enter the quiescent phase, Go.
HCT-116 cells were plated in triplicate for each compound concentration to be tested in RPMI 1640 media containing 10% fetal calf serum at a density of either 200 or 2,000 cells per well in 24 well dishes, and incubated overnight at 37° C., 5% CO2. The media from the plate containing 2,000 cells per well was removed, cells were washed once with serum free media and 1 ml of serum free media was placed on cells. Tle plates containing cells both in the presence and absence of serum were incubated for 6 additional days.
(§9) To ensure that the cells had indeed exited the cell cyde upon serum withdrawal, the percentage of BrdU positive cells, indicative of those progressing through S phase, was determined in each experiment. For the purpose of this experiment, cellular viability was evaluated simultaneously with the use of SNARF-1, a fluorescent substrate of intracellular esterases which are only active in viable cells. Together, the evaluation of BrdU incorporation and SNARF-1 cleavage by flow cytometry provided an assessment of the viability of arrested cells on a single cell basis. For this analysis, the cells were stained with SNARF-1 as follows and then prepared for determination of BrdU incorporation as described above.
(§10) HCT-116 and IMR90 cells were plated at the density described below in T25 flasks in serum-containing media (RPMI-1640 or MEM-a with 10% FCS, respectively). After 24 hours of growth, the media was removed and, after washing the cells, replaced with serum-free media. • HCT-116+FCS 5,000 cells • HCT-116−FCS 100,000 cells • IMR90+FCS 100,000 cells • IMR90−FCS 200,000 cells
(§11) The IMR90 cells were grown for an additional 3 days and the HCT-116 cells were grown for an additional 6 days before pulsing with BrdU. A 50 μg aliquot of SNARF-1 (Molecular Probes catalog #C1272) was dissolved in 50 μl DMSO at room temperature for 10 minutes and then diluted into 10 ml PBS. The SNARF-1 was further diluted 1:64,000 before 200 μl was added to each tube of cells which had been cultured in the presence or absence of serum and pulsed with BrdU for 20 hours. The cells were incubated at 37° C. for 30 minutes and then washed with 3 ml of PBS.
(§12) These cells were then fixed and prepared for the measurement of BrdU incorporation as described above. The percentage of viable (FL-2) and BrdU positive (FL-1) cells was determined on a FACScan flow cytometer.

arrested IMR90 cells = test: Arrested cell assay (serum starvation), IMR90; assay type: cell-based, human; design: unit not given here; details: serum-starved arrested cells; unit not given
Protocol: as §8
IMR90 cells were plated in triplicate for each compound concentration to be tested in MEM-α media containing 10% fetal calf serum at a density of either 2,000 or 20,000 cells per well in 24-well dishes and incubated overnight at 37° C., 5% CO2. The media was removed from the 20,000 cell-per-well dish, cells were washed once with serum-free media, and serum-fiee media was placed on cells. The plates containing cells both in the presence and absence of serum were incubated for 3 additional days.
as §9, §10, §11, §12

[4] = Homo sapiens, RPMI-1640 10% FCS, read-out: HCT-116 IC50 viability
[5] = 24 h exposure, read-out: HCT-116 IC50 clonogenic 24 h
[6] = plus 1 mg/ml alpha acidic glycoprotein and 45 mg/ml human serum albumin, read-out: HCT-116 IC50 protein adjusted

Row | IC50 (HCT-116; [4]) [µM] | IC50 (HCT-116; [6]) [µM] | SMILES | IC50 (HCT-116 cells [1]; 48 h exposure, read-out: HCT-116 IC50 clonogenic 48 h) [µM] | IC50 (HCT-116 cells [1]; 72 h exposure, read-out: HCT-116 IC50 clonogenic 72 h) [µM] | BrdU 72 (HCT-116 cells [2]) | NCI panel ADR-res (ADR-res) | IC50 (IMR90) [µM] | NCI panel MG-MID [3] [µM] | IC50 (HCT-116 cells [1]; [5]) [µM] | Arrested cell HCT (arrested HCT-116 cells) | BrdU 24 (HCT-116 cells [2]) | BrdU 48 (HCT-116 cells [2]) | Arrested cell IMR90 (arrested IMR90 cells)
1 | < 0.1 |  | CC(C)c1nn(-c2c(Cl)cc(Cl)cc2Cl)c2nc(Cc3ccc(OCCN4CCOCC4)cc3)[nH]c(=O)c12.Cl [A] | < 0.1 | < 0.1 | <0.1 | <1 | < 0.1 | <0.1 |  |  |  |  | 
2 | < 0.01 |  | Cc1cc(-c2[nH]nc3c2C(=O)c2c(NC(=O)NN4CCN(C)CC4)cccc2-3)ccc1OCCN1CCCC1 [Compound P] |  |  |  |  | < 0.1 |  | < 0.1 |  |  |  | 
3 |  |  | CC(C)c1nn(-c2c(Cl)cc(Cl)cc2Cl)c2nc(Cc3ccc(NS(=O)(=O)CCCN4CCOCC4)cc3)[nH]c(=O)c12.Cl [D] |  |  | <0.1 |  | < 0.01 |  |  | <0.01 | <0.1 | <0.1 | >1.0
4 |  | < 1 | Cc1cc(OCCN2CCCC2)ccc1-c1[nH]nc2c1C(=O)c1c(NC(=O)NN3CCN(C)CC3)cccc1-2.Cl.Cl.Cl [L] |  |  | <0.1 | >10 | > 0.1 | >10 |  |  | <0.1 | <0.1 | 
5 |  | < 1 | CN1CCN(NC(=O)Nc2cccc3c2C(=O)c2c-3n[nH]c2-c2ccc(OCCN3CCC[C@H]3CO)cc2)CC1.Cl.Cl.Cl [M] |  |  | <0.1 |  | < 0.1 |  |  | <0.1 | <0.1 | <0.1 | >1.0
6 | < 1 | < 1 | CN1CCN(NC(=O)Nc2cccc3c2C(=O)c2c-3n[nH]c2-c2ccc(OCCN(CCO)CCO)cc2)CC1 [N] |  |  |  |  | > 0.1 |  |  |  |  |  | 
7 |  |  | CN1CCN(NC(=O)Nc2cccc3c2C(=O)c2c-3n[nH]c2-c2ccc(OCCN3CC[C@H](O)C3)cc2)CC1.Cl.Cl.Cl [O] |  |  | <1 |  | < 0.1 |  | < 0.01 | <0.1 | <0.1 | <1 | >0.1

Source: patent US20050090471A1, “Inhibitors of cyclin-dependent kinases, compositions and uses related thereto” (GPC Biotech, Inc, priority 2001, published 2005)
